Measured values published in paper PMC11887051, “Discovery of ONO-2920632 (VU6011887): A Highly Selective and CNS Penetrant TREK-2 (TWIK-Related K+ Channel 2) Preferring Activator In Vivo Tool Compound” (ACS Chemical Neuroscience, 2025).
Entries after “also recorded” stand apart in the source; their conditions may differ.

Key:
[1] = system: Thyroid Hormone; experiment: Eurofins Lead Profiling radioligand binding; design: species or system Rat; conditions: title: 30 μM
[2] = system: Glutamate, Kainate; experiment: Eurofins Lead Profiling radioligand binding; design: species or system Rat; conditions: title: 30 μM
[3] = target: Prostanoid EP4 (Homo sapiens, UniProt P35408); experiment: Eurofins Lead Profiling radioligand binding; conditions: title: 30 μM
Prostanoid EP4, sequence (P35408 whole entry): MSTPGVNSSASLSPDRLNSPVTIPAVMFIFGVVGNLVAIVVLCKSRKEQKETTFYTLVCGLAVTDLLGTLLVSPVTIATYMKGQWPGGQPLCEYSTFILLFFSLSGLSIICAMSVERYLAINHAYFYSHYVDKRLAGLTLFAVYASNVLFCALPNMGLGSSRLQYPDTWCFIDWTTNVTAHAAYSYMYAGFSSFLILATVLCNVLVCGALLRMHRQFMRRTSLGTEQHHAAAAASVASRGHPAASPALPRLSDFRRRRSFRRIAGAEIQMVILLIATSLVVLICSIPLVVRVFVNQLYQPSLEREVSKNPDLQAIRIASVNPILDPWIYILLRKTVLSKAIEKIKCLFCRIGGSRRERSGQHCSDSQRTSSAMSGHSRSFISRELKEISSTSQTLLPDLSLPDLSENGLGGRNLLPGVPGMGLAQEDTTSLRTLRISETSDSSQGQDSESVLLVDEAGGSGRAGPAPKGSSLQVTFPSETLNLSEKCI

[4] = target: Endothelin ETA (Homo sapiens, UniProt P25101); experiment: Eurofins Lead Profiling radioligand binding; conditions: title: 30 μM
Endothelin ETA, sequence (P25101 21-427): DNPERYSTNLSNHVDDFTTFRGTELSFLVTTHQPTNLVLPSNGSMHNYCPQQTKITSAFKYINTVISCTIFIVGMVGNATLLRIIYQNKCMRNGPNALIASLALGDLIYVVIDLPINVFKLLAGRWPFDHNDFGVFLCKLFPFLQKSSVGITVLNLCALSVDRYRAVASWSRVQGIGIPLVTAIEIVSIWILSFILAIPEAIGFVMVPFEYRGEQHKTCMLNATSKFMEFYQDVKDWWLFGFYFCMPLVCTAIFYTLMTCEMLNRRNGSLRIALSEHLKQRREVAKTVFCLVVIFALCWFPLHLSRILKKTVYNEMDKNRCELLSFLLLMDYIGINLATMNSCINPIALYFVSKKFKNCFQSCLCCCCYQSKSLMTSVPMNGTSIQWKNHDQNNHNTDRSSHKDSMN

[5] = system: ICR male mice; experiment: acetic acid writhing assay; type: in vivo; conditions: mouse, 0.3, 1, 3 mg/kg PO, 2 h before acetic acid IP, writhes counted 30 min
Protocol: To initially explore the role of TREK-2 activation in analgesia, we evaluated 19b in the acetic acid writhing assay. Injection of acetic acid activates nociceptors directly and/or produces inflamed viscera (subdiaphragmatic organs) and subcutaneous (muscle wall) tissues. The number of writhes (characterized by contraction of the abdominal musculature and extension of the limbs) was then counted for 30 min. Analgesic effect was determined by comparing the number of writhes between in the presence of 19b or vehicle. […] At the 3 mg/kg PO dose of 19b, total brain levels are ∼3 μM and free brain in 0.92 μM and CSF levels in 0.22 μM, providing a good PK/PD relationship and supporting the data generated with the TREK activator 3.
Figure 4 Analgesic effect in acetic acid writhing assay. ICR male mice (6 weeks of age) were pretreated with vehicle (0.5 w/v% Methyl Cellulose in distilled water, PO) or 19b (= ONO-2920632) (0.3, 1, 3 mg/kg, PO) or Indomethacin (10 mg/kg, PO). […] The number of writhes (characterized by contraction of the abdominal musculature and extension of the limbs) was then counted for 30 min. Analgesic effect was determined by comparing the number of writhes between in the presence of compound and in the presence of vehicle (*; p < 0.05 by Student’s t test, #; p < 0.05 by Williams test).

[6] = target: Transporter, Serotonin (SERT) (Homo sapiens, UniProt P31645); experiment: Eurofins Lead Profiling radioligand binding; conditions: title: 30 μM
Transporter, Serotonin (SERT), sequence (P31645 whole entry): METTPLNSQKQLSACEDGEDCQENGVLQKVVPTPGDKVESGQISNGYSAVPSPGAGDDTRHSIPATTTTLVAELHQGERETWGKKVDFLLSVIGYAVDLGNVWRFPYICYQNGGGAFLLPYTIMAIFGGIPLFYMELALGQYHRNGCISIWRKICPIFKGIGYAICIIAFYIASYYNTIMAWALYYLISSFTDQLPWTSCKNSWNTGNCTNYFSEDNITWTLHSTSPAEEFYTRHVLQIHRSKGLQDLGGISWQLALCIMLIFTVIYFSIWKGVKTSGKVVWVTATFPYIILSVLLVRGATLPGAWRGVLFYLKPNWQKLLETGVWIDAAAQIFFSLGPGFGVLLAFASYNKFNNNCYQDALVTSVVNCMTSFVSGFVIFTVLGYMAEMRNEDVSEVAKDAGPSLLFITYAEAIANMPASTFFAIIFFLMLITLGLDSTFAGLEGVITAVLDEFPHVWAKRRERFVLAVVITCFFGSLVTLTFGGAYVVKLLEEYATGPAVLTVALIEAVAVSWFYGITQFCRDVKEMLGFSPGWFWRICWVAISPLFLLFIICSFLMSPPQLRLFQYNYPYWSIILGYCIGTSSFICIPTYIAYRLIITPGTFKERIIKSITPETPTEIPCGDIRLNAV

[7] = target: Melatonin MT1 (Homo sapiens, UniProt P48039); experiment: Eurofins Lead Profiling radioligand binding; conditions: title: 30 μM
Melatonin MT1, sequence (P48039 whole entry): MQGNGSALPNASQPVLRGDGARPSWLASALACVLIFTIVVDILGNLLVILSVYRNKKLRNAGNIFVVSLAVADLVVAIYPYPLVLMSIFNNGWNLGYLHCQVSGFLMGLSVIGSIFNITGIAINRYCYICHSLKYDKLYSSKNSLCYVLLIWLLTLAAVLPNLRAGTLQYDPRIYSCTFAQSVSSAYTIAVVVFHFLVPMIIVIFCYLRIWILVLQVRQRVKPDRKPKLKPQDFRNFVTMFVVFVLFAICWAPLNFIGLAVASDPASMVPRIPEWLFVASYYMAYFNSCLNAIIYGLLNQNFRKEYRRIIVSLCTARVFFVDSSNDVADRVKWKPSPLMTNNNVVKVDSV

[8] = dog IV PK study; type: in vivo; conditions: male, beagle, plasma, 0.1 mg/kg IV, HP-β-CD solution
Protocol: Plasma and brain tissue samples originating from in vivo studies were analyzed by electrospray ionization using an AB Sciex Q-TRAP 5500 (Foster City, CA) that was coupled to a Shimadzu LC-20AD pump (Columbia, MD) and a Leap Technologies CTC PAL auto-sampler (Carrboro, NC). Analytes were separated by gradient elution using a C18 column (3 x 50 mm, 3 mm; Fortis Technologies Ltd, Cheshire, UK) that was thermostated at 40 °C. HPLC mobile phase A was 0.1% formic acid in water (pH unadjusted); mobile phase B was 0.1% formic acid in acetonitrile (pH […]
min, with an isocratic hold for 0.5 min, before transitioning to 10% B over 0.05 min. The column was re-equilibrated (1 min) before the next sample injection. The total run time was 2.55 min, and the HPLC flow rate was 0.5 ml/min. The source temperature was set at 500 °C, and mass spectral analyses were performed using a Turbo-Ion spray source in positive ionization mode (5.0-kV spray voltage) and using multiple-reaction monitoring of transitions specific for the analytes. All data were analyzed using AB Sciex Analyst 1.5.1 software. […]
For determination of the plasma concentration-time profile, compounds were formulated in methyl cellulose and administered as a 3 mg/kg PO dose to male C57BL/6 mouse or SD rat (n = 2). For the same determination, compounds were formulated in HP-β-CD and administered as a 0.1 mg/kg IV dose to male beagle dog (n = 2).
Plasma samples originating from in vivo studies were analyzed by electrospray ionization using a Q-TRAP 5500 (AB Sciex) that was coupled to a Prominence UFLC XR (Shimadzu Corporation).
Analytes were separated by gradient elution using a Shim-pack XR-ODS II (2 x 75 mm, 2.2μm, Shimadzu Corporation) that was thermostated at 40 °C. HPLC mobile phase A was 5 mM ammonium acetate containing 0.2% formic acid in water (pH unadjusted); mobile phase B was […]
hold for 1.5 min, before transitioning to 10% B over 0.1 min. The column was re-equilibrated (0.9 min) before the next sample injection. The total run time was 4.0 min, and the HPLC flow rate was 0.5 ml/min. […]

[9] = target: Dopamine D3 (Homo sapiens, UniProt P35462); experiment: Eurofins Lead Profiling radioligand binding; conditions: title: 30 μM
Dopamine D3, sequence (P35462 whole entry): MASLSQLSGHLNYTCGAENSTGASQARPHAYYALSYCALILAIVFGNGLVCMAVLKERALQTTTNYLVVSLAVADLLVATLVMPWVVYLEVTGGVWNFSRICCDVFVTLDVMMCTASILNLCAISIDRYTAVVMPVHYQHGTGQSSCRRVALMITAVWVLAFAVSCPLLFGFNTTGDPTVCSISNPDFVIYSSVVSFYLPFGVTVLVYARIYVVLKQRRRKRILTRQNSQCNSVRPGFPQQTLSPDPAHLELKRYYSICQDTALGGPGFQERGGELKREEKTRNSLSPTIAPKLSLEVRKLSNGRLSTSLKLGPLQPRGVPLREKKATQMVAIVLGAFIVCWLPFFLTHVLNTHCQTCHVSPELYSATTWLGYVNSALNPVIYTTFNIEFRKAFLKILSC

For `O=C(NCc1ccc(OC(F)(F)F)cc1F)c1ccc2ncnn2c1` [Compound 19b], the “% Inhibition at 10 µM” value [1] was 9%, the “% Inhibition at 10 µM” value [2] was 13% and the inhibition [3] was 14%. The inhibition [4] was -3%, the “analgesic effect (number of writhes)” value [5] was “dose-dependently reduces the number of writhes; also recorded: analgesic efficacy at 3 mg/kg PO of comparable magnitude to the positive control indomethacin” and the “analgesic effect (number of writhes)” value ([5]; listed as ONO-2920632) was “robust, dose dependent efficacy”. The inhibition [6] was 2%, the inhibition [7] was 17% and the half-life [8] was 22 h. It also gave a clearance ([8]; read-out: CLp) of 1.3 mL/min/kg, a Vd ([8]; read-out: Vss) of 2.2 L/kg and an inhibition [9] of 13%.
